This is an account of results in PubChem BioAssay (NCI).

The structures appear in SMILES notation. Several values for one entry are separate records, joined by “and”; a condition that tells them apart may be missing. Equal values may be shown once.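 Method: 48-hour compound exposure of cells in 96-well plates, five concentrations, linear interpolation of endpoints. GI50 = concentration required for 50% inhibition of growth. The concentration for full growth arrest is given as TGI.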 Where only a bound is given, the exact number is not on record here.

Test systems include SF-295 CNS; SN12C renal; HT29 colon; UACC-257 melanoma; KM12 colon; UACC-62 melanoma; OVCAR-4 ovarian; HOP-62 NSCLC.
What all share (assay): NCI-60 cell line screen, 48 h

For the molecule `Nc1c(C(=O)Nc2cccc(C(F)(F)F)c2)sc2nc3c(cc12)CCCCCC3`, the GI50 in the test with SF-295 CNS is 1.58 µM; in the test on SN12C renal it was 3.15 µM; in the test with HT29 colon, 3.24 µM; with UACC-257 melanoma it was 4.37 µM; in the test on KM12 colon it was 4.08 µM; in the test on UACC-62 melanoma it was 3.25 µM. Moreover, the GI50 in the test on OVCAR-4 ovarian was 1.61 µM. Besides, the TGI was determined as 3.6 µM with SF-295 CNS; 13 µM in the test with SN12C renal; 32.4 µM with HT29 colon; 22.7 µM in the test with UACC-257 melanoma; 23.5 µM in the test with KM12 colon; 21.5 µM in the test on UACC-62 melanoma. This molecule yielded a TGI in the test with OVCAR-4 ovarian of 4 µM.

With `O=C1c2ccc3c4c(ccc(c24)C(=O)N1CCNCc1ccccc1)C(=O)N(CCNCc1ccccc1)C3=O`, the GI50 with SF-295 CNS is 1.78 µM; in the test with SN12C renal it was 1.63 µM; in the test on HOP-62 NSCLC, 1.91 µM; in the test on UACC-257 melanoma it was 1.69 µM; in the test on KM12 colon, 1.69 µM; with UACC-62 melanoma, 1.74 µM. Besides, the GI50 in the test on OVCAR-4 ovarian was 1.41 µM. In addition, the TGI turned out to be 5.2 µM in the test with SF-295 CNS; 3.05 µM in the test with SN12C renal; 4.57 µM in the test on HOP-62 NSCLC; 3.45 µM with UACC-257 melanoma; 3.31 µM in the test on KM12 colon; 3.35 µM in the test on UACC-62 melanoma. Moreover, in the test on OVCAR-4 ovarian, the TGI was 2.71 µM.

As to `COC(=O)[C@]12CC[C@@H](C)[C@H](C)[C@@H]1C1=CC[C@@H]3[C@@](C)(CC#N)C4=C(C[C@@]3(C)[C@]1(C)CC2)OC[C@]4(C)C=O`, the GI50 with SF-295 CNS was 13.2 µM; in the test on HT29 colon, 5.85 µM; in the test with HOP-62 NSCLC it was 5 µM; in the test with UACC-257 melanoma, 3.73 µM; in the test with KM12 colon, 6.46 µM; with OVCAR-4 ovarian it was 4.15 µM. For the same molecule, the TGI was 40.6 µM in the test on SF-295 CNS; 41.5 µM in the test on HT29 colon; 36.6 µM in the test on HOP-62 NSCLC; 18.3 µM with UACC-257 melanoma; 62.9 µM in the test on KM12 colon; greater than 100 µM in the test with OVCAR-4 ovarian.

As for `CCn1ncc(N=O)c1N`, the TGI in the test on SF-295 CNS, with SN12C renal, with HT29 colon, in the test with HOP-62 NSCLC, in the test on UACC-257 melanoma and in the test with KM12 colon was greater than 100 µM each time. Also, the TGI in the test with UACC-62 melanoma was greater than 100 µM.

Regarding `CC(C)C1=CC2=C(C(=O)C1=O)C13CCCC(C)(C)C1CC2OC3=O` (stereo unspecified), the TGI in the test on SF-295 CNS was greater than 100 µM; in the test with SN12C renal, 43.6 µM; in the test on HT29 colon it was 26.3 µM; in the test with UACC-257 melanoma, 71 µM; in the test with KM12 colon it was greater than 100 µM; with UACC-62 melanoma, 27.4 µM. The molecule further yielded a TGI in the test on OVCAR-4 ovarian of 40.6 µM.

Take `Cc1[nH]nc(C(=O)N/N=C/c2ccccc2Cl)c1N=NN(C)C`: the TGI in the test with SF-295 CNS, with SN12C renal, with HT29 colon, in the test on UACC-257 melanoma, in the test with KM12 colon and in the test with UACC-62 melanoma was greater than 100 µM throughout. Further, in the test on OVCAR-4 ovarian, the TGI is greater than 100 µM.

`NC(=O)c1csc(-c2ccc(CO)o2)n1`: the TGI in the test with SF-295 CNS, in the test with SN12C renal, with HT29 colon, in the test with UACC-257 melanoma, in the test on KM12 colon and in the test with UACC-62 melanoma was greater than 100 µM each time. This molecule came in with a TGI with OVCAR-4 ovarian greater than 100 µM.

As for `CN1CCN(CCC=C2c3ccccc3Sc3ccc(S(=O)(=O)N(C)C)cc32)CC1`, the GI50 was 6.23 µM and 13.8 µM in the test with SN12C renal; 1.42 µM and 0.872 µM in the test with HT29 colon; 5.73 µM and 14.6 µM in the test on HOP-62 NSCLC; 2.02 µM and 1.8 µM with UACC-257 melanoma; 3.96 µM and 4.68 µM in the test with KM12 colon; 1.66 µM and 1.76 µM with UACC-62 melanoma. Besides, in the test on OVCAR-4 ovarian, the GI50 is 9.5 µM and 12.8 µM. Moreover, the TGI was 34.6 µM and > 49.3 µM in the test with SN12C renal; 3.26 µM and 2.91 µM in the test on HT29 colon; 23.3 µM and 33 µM in the test on HOP-62 NSCLC; 3.73 µM and 4.03 µM with UACC-257 melanoma; 24.3 µM and 16.4 µM in the test on KM12 colon; 3.21 µM and 3.48 µM in the test with UACC-62 melanoma. The TGI in the test with OVCAR-4 ovarian is > 100 µM and 58.9 µM.

Consider `COC(=O)Nc1nc2ccc(C(=O)c3ccc(F)cc3)cc2[nH]1`, for which the GI50 in the test on SF-295 CNS was 0.094 µM; in the test with SN12C renal, 0.841 µM; with HT29 colon it was 0.0785 µM; in the test on HOP-62 NSCLC, 0.682 µM; in the test with UACC-257 melanoma it was 68 µM; with UACC-62 melanoma, 0.199 µM. Also, in the test with OVCAR-4 ovarian, the GI50 is 1.21 µM. In addition, the TGI with SF-295 CNS was 0.966 µM; with SN12C renal it was greater than 100 µM; in the test with HT29 colon it was greater than 100 µM; in the test with HOP-62 NSCLC, 29.1 µM; in the test with UACC-257 melanoma, greater than 100 µM; in the test on UACC-62 melanoma it was 17.8 µM. In the test with OVCAR-4 ovarian, the TGI is greater than 100 µM.

Take `O=C(Nc1cccc(-n2cc(-c3ccncc3)c(-c3ccc(Cl)c(O)c3)n2)c1)Nc1ccc(Cl)c(Cl)c1`: the GI50 in the test with SN12C renal was 1.31 µM; in the test with HT29 colon, 4.89 µM; in the test on HOP-62 NSCLC it was 2.08 µM; in the test on UACC-257 melanoma, 0.93 µM; with KM12 colon it was 1.01 µM; in the test on UACC-62 melanoma, 1.11 µM. Further, the GI50 in the test with OVCAR-4 ovarian was 1.69 µM. Further, the TGI with SN12C renal is greater than 32.5 µM; in the test with HT29 colon it was greater than 32.5 µM; in the test on HOP-62 NSCLC it was 17.6 µM; in the test on UACC-257 melanoma, 3.16 µM; in the test on KM12 colon, 4.47 µM; in the test on UACC-62 melanoma, 5.21 µM. The molecule further gave a TGI with OVCAR-4 ovarian greater than 32.5 µM.

Take `Nc1cc(N)c2nc(NCCc3ccc(Cl)c(Cl)c3)cnc2c1`: the GI50 with SF-295 CNS is 15.3 µM; with SN12C renal, 11.7 µM; with HT29 colon, 6.47 µM; in the test on HOP-62 NSCLC it was 19.8 µM; in the test with KM12 colon, 13 µM; with UACC-62 melanoma it was 14.1 µM. Further, the GI50 in the test with OVCAR-4 ovarian is 1.81 µM. For the same molecule, the TGI amounted to 29.6 µM with SF-295 CNS; 23.9 µM in the test with SN12C renal; 18.8 µM in the test with HT29 colon; 38 µM in the test with HOP-62 NSCLC; 30.4 µM in the test with KM12 colon; 27.8 µM in the test on UACC-62 melanoma. In the test with OVCAR-4 ovarian, this molecule yielded a TGI of 3.26 µM.

In the case of `COc1cc(C2CC(c3cccc(Nc4ccnc5cc(Cl)ccc45)c3)=NN2c2ccccc2)cc(OC)c1OC` (stereo unspecified), the GI50 was 3.55 µM in the test with SF-295 CNS; greater than 100 µM in the test on SN12C renal; 3.81 µM in the test on HOP-62 NSCLC; 10.5 µM in the test on UACC-257 melanoma; 2 µM with KM12 colon; 0.869 µM in the test on UACC-62 melanoma. For the same molecule, the TGI in the test on SF-295 CNS, in the test with SN12C renal, in the test with HOP-62 NSCLC, with UACC-257 melanoma, in the test on KM12 colon and in the test on UACC-62 melanoma was greater than 100 µM each time.
